# Target: T1, human orexin type 2 receptor (Homo sapiens, UniProt O43614)
# T1 construct: human orexin type 2 receptor cDNA was inserted into pcDNA3.1(+) plasmid vector (Invitrogen); expressed in transfected cells
# T1 sequence (O43614 1-444): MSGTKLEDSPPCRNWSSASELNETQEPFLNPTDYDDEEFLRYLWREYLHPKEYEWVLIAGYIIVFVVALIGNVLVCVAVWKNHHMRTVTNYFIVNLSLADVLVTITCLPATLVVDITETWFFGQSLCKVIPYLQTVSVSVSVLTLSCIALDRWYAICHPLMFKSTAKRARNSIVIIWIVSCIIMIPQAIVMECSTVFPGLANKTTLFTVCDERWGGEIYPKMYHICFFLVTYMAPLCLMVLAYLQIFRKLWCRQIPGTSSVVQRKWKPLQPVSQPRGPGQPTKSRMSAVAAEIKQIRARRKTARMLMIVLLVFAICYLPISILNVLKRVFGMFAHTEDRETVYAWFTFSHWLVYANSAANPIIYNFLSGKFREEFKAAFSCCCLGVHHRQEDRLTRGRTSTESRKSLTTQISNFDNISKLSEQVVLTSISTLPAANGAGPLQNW
# Test: Measurement of orexin type 2 receptor agonist activity (calcium fluorescence, CHO cells expressing hOX2R)
# Type: cell-based
# Conditions: test compound 3 μM; CHO cells expressing human OX2 receptor; DMSO = 0%, orexin A (human) = 100%
# Summary of the method: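 CHO-dhfr cells stably expressing hOX2R, loaded with Fluo-4 AM in HBSS/20 mM HEPES/0.1% BSA with probenecid, then given test compound. Calcium fluorescence was read for about 2 min 40 sec. Activity (%) was scaled between DMSO (0%) and 10 nM final human orexin A (100%).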
row,Compound,"OX2R agonist activity (3 μM, %)"
1,"CC(C)C(=O)N1CC[C@H](NS(C)(=O)=O)[C@@H]1Cc1cccc(-c2cccc(F)c2)c1F (relative stereo) [Example 294, N-(cis-2-((2,3′-difluorobiphenyl-3-yl)methyl)-1-isobutyrylpyrrolidin-3-yl)methanesulfonamide]",104%
2,"CS(=O)(=O)N[C@H]1CCN(C(=O)C2CCC2)[C@H]1Cc1cc(F)cc(-c2ccccc2)c1 (relative stereo) [Example 299, N-(cis-1-(cyclobutylcarbonyl)-2-((5-fluorobiphenyl-3-yl)methyl)pyrrolidin-3-yl)methanesulfonamide]",100%
3,"CS(=O)(=O)N[C@H]1CCN(C(=O)C2CCC2)[C@H]1Cc1cc(F)cc(-c2cccc(F)c2)c1 (relative stereo) [Example 300, N-(cis-1-(cyclobutylcarbonyl)-2-((3′,5-difluorobiphenyl-3-yl)methyl)pyrrolidin-3-yl)methanesulfonamide]",99%
4,"CS(=O)(=O)N[C@H]1CCN(C(=O)C2CCC2)[C@H]1Cc1ccc(F)c(-c2ccccc2)c1 (relative stereo) [Example 303, N-(cis-1-(cyclobutylcarbonyl)-2-((6-fluorobiphenyl-3-yl)methyl)pyrrolidin-3-yl)methanesulfonamide]",95%
5,"CS(=O)(=O)N[C@H]1CCN(C(=O)C2CCC2)[C@H]1Cc1ccc(F)c(-c2cccc(F)c2)c1 (relative stereo) [Example 304, N-(cis-1-(cyclobutylcarbonyl)-2-((3′,6-difluorobiphenyl-3-yl)methyl)pyrrolidin-3-yl)methanesulfonamide]",94%
6,"CCS(=O)(=O)N[C@H]1CCN(C(=O)C2CCC2)[C@H]1Cc1csc(-c2cc(F)cc(F)c2)n1 (relative stereo) [Example 315, N-(cis-1-(cyclobutylcarbonyl)-2-((2-(3,5-difluorophenyl)-1,3-thiazol-4-yl)methyl)pyrrolidin-3-yl)ethanesulfonamide]",105%
7,"CCS(=O)(=O)N[C@H]1CCN(C(=O)C2(C)CCC2)[C@H]1Cc1csc(-c2cc(F)cc(F)c2)n1 (relative stereo) [Example 316, N-(cis-2-((2-(3,5-difluorophenyl)-1,3-thiazol-4-yl)methyl)-1-((1-methylcyclobutyl)carbonyl)pyrrolidin-3-yl)ethanesulfonamide]",104%
8,"CCS(=O)(=O)N[C@H]1CCN(C(=O)C2(O)CCC2)[C@H]1Cc1csc(-c2cc(F)cc(F)c2)n1 (relative stereo) [Example 317, N-(cis-2-((2-(3,5-difluorophenyl)-1,3-thiazol-4-yl)methyl)-1-((1-hydroxycyclobutyl)carbonyl)pyrrolidin-3-yl)ethanesulfonamide]",103%
9,"CCS(=O)(=O)N[C@H]1CCN(C(=O)C23CC(C2)C3)[C@H]1Cc1csc(-c2cc(F)cc(F)c2)n1 (relative stereo) [Example 318, N-(cis-1-(bicyclo[1.1.1]pent-1-ylcarbonyl)-2-((2-(3,5-difluorophenyl)-1,3-thiazol-4-yl)methyl)pyrrolidin-3-yl)ethanesulfonamide]",102%
10,"CS(=O)(=O)N[C@H]1CCN(C(=O)C2CCC2)[C@H]1Cc1csc(-c2ccccc2)n1 (relative stereo) [Example 319, N-(cis-1-(cyclobutylcarbonyl)-2-((2-phenyl-1,3-thiazol-4-yl)methyl)pyrrolidin-3-yl)methanesulfonamide]",101%
11,"CC1(C(=O)N2CC[C@H](NS(C)(=O)=O)[C@@H]2Cc2csc(-c3cc(F)cc(F)c3)n2)CCC1 (relative stereo) [Example 322, N-(cis-2-((2-(3,5-difluorophenyl)-1,3-thiazol-4-yl)methyl)-1-((1-methylcyclobutyl)carbonyl)pyrrolidin-3-yl)methanesulfonamide]",104%
12,"CS(=O)(=O)N[C@H]1CCN(C(=O)C2(O)CCC2)[C@H]1Cc1csc(-c2cc(F)cc(F)c2)n1 (relative stereo) [Example 323, N-(cis-2-((2-(3,5-difluorophenyl)-1,3-thiazol-4-yl)methyl)-1-((1-hydroxycyclobutyl)carbonyl)pyrrolidin-3-yl)methanesulfonamide]",109%
13,"CS(=O)(=O)N[C@H]1CCN(C(=O)N2CCC2)[C@H]1Cc1cccc(-c2cccc(F)c2)n1 (relative stereo) [Example 333, N-(cis-1-(azetidin-1-ylcarbonyl)-2-((6-(3-fluorophenyl)pyridin-2-yl)methyl)pyrrolidin-3-yl)methanesulfonamide]",101%
14,"CS(=O)(=O)N[C@H]1CCN(C(=O)C2(O)CCC2)[C@H]1Cc1cccc(-c2cccc(F)c2)n1 (relative stereo) [Example 338, N-(cis-2-((6-(3-fluorophenyl)pyridin-2-yl)methyl)-1-((1-hydroxycyclobutyl)carbonyl)pyrrolidin-3-yl)methanesulfonamide]",103%
15,"CC(C)OC(=O)N1CCCC(NS(C)(=O)=O)C1Cc1cccc(-c2ccccc2)n1 (stereo not drawn) [Example 76, Optically Active isopropyl cis-3-((methylsulfonyl)amino)-2-((6-phenylpyridin-2-yl)methyl)piperidine-1-carboxylate]",106%
16,"CCOC(=O)N1CC[C@H](NS(C)(=O)=O)[C@@H]1Cc1cccc(-c2ccccc2)c1 [Example 101, ethyl (2S,3S)-2-(biphenyl-3-ylmethyl)-3-((methylsulfonyl)amino)pyrrolidine-1-carboxylate]",96%
17,"CC(C)OC(=O)N1CCCC(NS(C)(=O)=O)C1Cc1csc(-c2ccccc2)n1 (stereo not drawn) [Example 210, Optically Active isopropyl cis-3-((methylsulfonyl)amino)-2-((2-phenyl-1,3-thiazol-4-yl)methyl)piperidine-1-carboxylate]",102%
18,"CS(=O)(=O)N[C@H]1CCN(C(=O)C2CCC2)[C@H]1Cc1cccc(-c2ccccc2)c1 [Example 261, N-((2S,3S)-2-(biphenyl-3-ylmethyl)-1-(cyclobutylcarbonyl)pyrrolidin-3-yl)methanesulfonamide]",97%
19,"CS(=O)(=O)N[C@H]1CCN(C(=O)C2CCC2)[C@H]1Cc1cccc(-c2cccc(F)c2)c1 [Example 262, N-((2S,3S)-1-(cyclobutylcarbonyl)-2-((3′-fluorobiphenyl-3-yl)methyl)pyrrolidin-3-yl)methanesulfonamide]",101%
20,"CS(=O)(=O)N[C@H]1CCN(C(=O)C2(F)CCC2)[C@H]1Cc1cccc(-c2cccc(F)c2)c1 [Example 266, N-((2S,3S)-2-((3′-fluorobiphenyl-3-yl)methyl)-1-((1-fluorocyclobutyl)carbonyl)pyrrolidin-3-yl)methanesulfonamide]",107%
21,"CC1(C(=O)N2CC[C@H](NS(C)(=O)=O)[C@@H]2Cc2cccc(-c3cccc(F)c3)c2)CCC1 [Example 305, N-((2S,3S)-2-((3′-fluorobiphenyl-3-yl)methyl)-1-((1-methylcyclobutyl)carbonyl)pyrrolidin-3-yl)methanesulfonamide]",105%
22,"CS(=O)(=O)N[C@H]1CCN(C(=O)C23CC(C2)C3)[C@H]1Cc1cccc(-c2cccc(F)c2)c1 [Example 306, N-((2S,3S)-1-(bicyclo[1.1.1]pent-1-ylcarbonyl)-2-((3′-fluorobiphenyl-3-yl)methyl)pyrrolidin-3-yl)methanesulfonamide]",100%
23,"CS(=O)(=O)N[C@H]1CCN(C(=O)C23CC(C2)C3)[C@H]1Cc1cccc(-c2cc(F)cc(F)c2)c1 [Example 307, N-((2S,3S)-1-(bicyclo[1.1.1]pent-1-ylcarbonyl)-2-((3′,5′-difluorobiphenyl-3-yl)methyl)pyrrolidin-3-yl)methanesulfonamide]",102%
24,"CS(=O)(=O)N[C@H]1CCN(C(=O)C2(O)CCC2)[C@H]1Cc1cccc(-c2cccc(F)c2)c1 [Example 308, N-((2S,3S)-2-((3′-fluorobiphenyl-3-yl)methyl)-1-((1-hydroxycyclobutyl)carbonyl)pyrrolidin-3-yl)methanesulfonamide]",107%
25,"CS(=O)(=O)N[C@H]1CCN(C(=O)C2(C(F)(F)F)CCC2)[C@H]1Cc1cccc(-c2cccc(F)c2)c1 [Example 309, N-((2S,3S)-2-((3′-fluorobiphenyl-3-yl)methyl)-1-((1-(trifluoromethyl)cyclobutyl)carbonyl)pyrrolidin-3-yl)methanesulfonamide]",101%
26,"CS(=O)(=O)N[C@H]1CCN(C(=O)C2CCC2)[C@H]1Cc1cccc(-c2cc(F)cc(F)c2)c1 [Example 310, N-((2S,3S)-1-(cyclobutylcarbonyl)-2-((3′,5′-difluorobiphenyl-3-yl)methyl)pyrrolidin-3-yl)methanesulfonamide]",102%
27,"Cc1cccc(-c2cccc(C[C@H]3[C@@H](NS(C)(=O)=O)CCN3C(=O)C3CCC3)c2)c1 [Example 311, N-((2S,3S)-1-(cyclobutylcarbonyl)-2-((3′-methylbiphenyl-3-yl)methyl)pyrrolidin-3-yl)methanesulfonamide]",103%
